One data set concerns the target BACE1 enzyme (Homo sapiens (Human), UniProt P56817). In words: BACE1 efficacy assay (FRET-based, commercial BACE1 kit). As to conditions: test compound 10 μM, 3 nM enzyme, 250 nM substrate. Type of data set: biochemical. As to the method: The efficacy assay was performed as a FRET-based assay using a commercially available BACE1 kit (Life Technologies, P2985). 2 μl test compound at 10 μM (final concentration) and 15 μl BACE1 enzyme from the kit (final concentration 3 nM) were preincubated for 15 minutes at room temperature before addition of 15 μl of substrate from the kit (250 nM final concentration) and incubated for additional 90 minutes at room temperature. The assay plate was subsequently read in a Pherastar (Ex540/Em590). […] The efficacy of the test compounds was evaluated at 10 μM (final concentration) and defined as the percent inhibition of the enzyme activity using the equation % inhibition=100%−normalized enzyme activity in percent.

Data set [1] is described as follows: Brain and plasma exposure in rats after oral dosing (DMPK analysis). Type of data set: in vivo. As to conditions: male, Sprague Dawley, rat, 3 hours post dose. As to the method: Young adult Male Sprague Dawley rats of approximately 250 g weight were purchased from Charles River and received 0-30 mg/kg of vehicle (10% HP betaCD+1M MeSO4, pH 2.5) or test compounds (dissolved in vehicle) only by oral gavage (p.o). The compounds are dosed at a volume of 5 ml/kg. Cohorts of 5-10 animals were established for each treatment condition.
At T=180 minutes after initial dosing the animals were stunned and decapitated with a guillotine. Trunk-blood was sampled in EDTA coated tubes after decapitation of the animal. The blood was centrifuged at 2200G at 4° C. for 15 minutes and the plasma was collected and frozen at −80° C. The blood was aliquoted for Aβ ELISA and DMPK analysis. Immediately following sacrifice, the brain was extracted and split into 2 halves. The right hemibrains were snap frozen on dry ice and stored at −80° C. The left half was dissected; with the front forebrain taken for Aβ ELISA and the remainder used for DMPK analysis. These samples were also snap frozen on dry ice and stored at −80° C. until use for analysis.
Compounds 1, 5, 17, 18, and 24 were administered at doses of 10 or 30 mg/kg p.o. and brain and plasma samples were collected at 3 hours post dose and the following exposures and reductions in Aβ40 levels were measured as described above.

Setting [2] is: 10 mg/kg p.o., brain, read-out: Exp, brain.
Where [3] appears, read: 10 mg/kg p.o., plasma, read-out: Exp, plasma.
[4] abbreviates: 30 mg/kg p.o., brain, read-out: Exp, brain.
Where [5] appears, read: 30 mg/kg p.o., plasma, read-out: Exp, plasma.

This passage reports inhibition and concentration results from US10004738B2, “Combination treatment comprising administration of 2-amino-3,5,5-trifluoro-3,4,5,6-tetrahydropyridines” (H. Lundbeck A/S, priority 2015, dated 2018).

Where two headings read alike, the source gives them in different places.

BACE1 enzyme, sequence (P56817 46-501): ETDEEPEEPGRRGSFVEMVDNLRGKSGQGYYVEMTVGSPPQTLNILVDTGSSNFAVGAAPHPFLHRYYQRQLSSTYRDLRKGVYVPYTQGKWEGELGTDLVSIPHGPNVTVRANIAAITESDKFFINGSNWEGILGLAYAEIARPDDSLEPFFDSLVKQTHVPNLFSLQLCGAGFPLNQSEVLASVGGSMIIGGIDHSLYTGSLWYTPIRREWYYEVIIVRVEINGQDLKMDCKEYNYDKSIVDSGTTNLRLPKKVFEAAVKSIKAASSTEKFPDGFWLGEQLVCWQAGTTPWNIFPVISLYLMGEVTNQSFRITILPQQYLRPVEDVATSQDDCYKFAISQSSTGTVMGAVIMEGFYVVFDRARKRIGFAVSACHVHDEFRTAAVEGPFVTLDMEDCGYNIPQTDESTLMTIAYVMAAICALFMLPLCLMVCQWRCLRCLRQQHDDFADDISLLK

Broadly, the inhibition is the change of the read-out against control, counted positive when it falls. `Cc1cc(C#N)cnc1C(=O)Nc1ccc(F)c([C@@]2(C)N=C(N)[C@@](C)(F)CC2(F)F)c1` [Compound 18, N-(3-((2R,5S)-6-amino-3,3,5-trifluoro-2,5-dimethyl-2,3,4,5-tetrahydropyridin-2-yl)-4-fluorophenyl)-5-cyano-3-methylpicolinamide]: at BACE1 enzyme, the inhibition at 10 µM worked out at 102%. Also, the concentration at 3 h stood at 412 ng/g in data set [1] (setting [2]), 778 ng/g in data set [1] (setting [3]), 1610 ng/g in data set [1] (setting [4]) and 3000 ng/g in data set [1] (setting [5]).
As to `C[C@@]1(F)CC(F)(F)[C@@](C)(c2cc(NC(=O)c3cnc(C(F)F)cn3)ccc2F)N=C1N` [Compound 24, N-(3-((2R,5R)-6-amino-3,3,5-trifluoro-2,5-dimethyl-2,3,4,5-tetrahydropyridin-2-yl)-4-fluorophenyl)-5-(difluoromethyl)pyrazine-2-carboxamide], on BACE1 enzyme, the inhibition at 10 µM is 98%. Moreover, the concentration at 3 h was 134 ng/g in data set [1] (setting [2]), 96.2 ng/g in data set [1] (setting [3]), 809 ng/g in data set [1] (setting [4]) and 673 ng/g in data set [1] (setting [5]).
